From US20150051210A1, “Tyrosine Kinase Inhibitor Combinations and their Use” (Novartis AG, priority 2012, published 2015)

How the values were obtained:
Format in all cases: cell-based
[1] = system: phosphorylation of MET, FRS2, ERK, AKT in RT-112; assay: Western blots of protein phosphorylation in RT-112 cells
Method: (§1) Western Blots (Figures not Shown) MKN-45 and RT-112 cells were treated in 6-well plates for 2 hours and 18 hours in the presence or absence of purified protein (rhFGF7, rhNRG1-31, or rhHGF), and/or inhibitor (Cpd. B, Cpd. A, BGJ398). Following wash with ice-cold PBS, cells were lysed with RIPA buffer (Thermo) containing phosphatase (Thermo) and proteinase (Roche) inhibitor cocktails. Total protein was quantified by bicinchoninic protein assay (Pierce). Aliquots of 20 μg were resolved by electrophoresis on NuPAGE SDS-PAGE 4-12% BIS-Tris gels before transfer to nitrocellulose membranes. Membranes were blocked for one hour at room temperature before overnight incubation at 4° C. with the following primary antibodies (source rabbit, 1:1000 final dilution): anti-phospho-Akt (Ser473), anti-phospho-MET (Tyr1234/1235), anti-phospho-MAPK/ERK(1/2) (Thr202/Tyr204), anti-AKT, anti-MAPK/Erk(1/2), and anti-α/β-Tubulin . Anti-MET was probed at 1:800 final dilution An internal antibody was used for phospho-FRS2(Y346) (1:1500 dilution). Membranes were then washed 3 times in PBS+0.1% Tween before addition of secondary antibody, IRDye 680LT goat anti-rabbit IgG , dilution 1:15000. After one hour at room temperature, membranes were washed and bands were visualized using an Odyssey Infrared Imager.

RT-112 cells = assay: RT-112 Dual Inhibition: reversal of rescue with selective inhibitors, CellTiter-Glo cell viability; settings: for activity on cell viability (reversal of rescue): RT-112, rhHGF or rhNRG-1 250 ng/ml, 96 h, BGJ398 100 nM, Cpd. A/Cpd. B 500 nM, Lapatinib 1.5 μM, FIG. 5, FIG. 6
Method: RT-112 Secretome screen: The basic format was identical to the MKN-45 secretome screen with slight modifications. RT-112 cells were plated in EMEM+10% in white, tissue-culture treated 384-well plates at 1000 cells/20 μl/well and allowed to attach overnight. Supernatant from library-transfected HEK293T/17 cells was transferred as described above for the MKN-45 secretome screen. Purified proteins rhNRG1-31 and rhTGFα were added as positive controls, at a final concentration of 150 ng/ml. Following addition of supernatants and purified protein controls, BGJ398 diluted in DMEM was added at 10 μl/well for a final assay concentration of 100 nM. Cell viability was measured after 72 hours using CellTiter-Glo as described above. (FIG. 2)
RT-112 Dual Inhibition: The format for the RT-112 dual inhibition experiment was similar to that described for MKN-45 with the following modifications. RT-112 cells were plated at 1000 cells/20 μl/well. Solutions of rhHGF and rhNRG-1 were added to achieve a final concentration of 250 ng/ml. Single and dual inhibition conditions were prepared as follows: BGJ398, Cpd. A, Cpd. B, Lapatinib, BGJ398 and Cpd. A, BGJ398 and Cpd. B, BGJ398 and Lapatinib. Final concentrations for each compound, whether single or combined, were as follows: 100nM for BGJ398, 500 nM for Cpd. A and Cpd. B, and 1.5 μM for Lapatinib. After 96 hours cell viability was measured by CellTiter-Glo as previously described. (FIG. 5, FIG. 6).

MKN-45 cells = assay: MKN-45 Dual Inhibition: reversal of rescue with selective inhibitors, CellTiter-Glo cell viability; settings: for activity on cell viability (reversal of rescue): MET-dependent MKN-45, rhFGF7 or rhNRG-1 250 ng/ml, 96 h, Cpd. A/Cpd. B 100 nM, BGJ398 500 nM, Lapatinib 1.5 μM, FIG. 3, FIG. 4
Method: MKN-45 Secretome screen: MKN-45 cells were plated in white, tissue-culture treated 384-well plates (Greiner) at 3000 cells/20 μl DMEM +10% FBS/well and allowed to attach overnight. Supernatant from library-transfected HEK293T/17 cells was then transferred to the MKN-45 cells at 30 μl/well using a Biomek FX liquid handler (Beckman Coulter) with pipetting speeds reduced to minimize disturbance of the HEK293T/17 monolayer. As positive controls, the purified proteins rhEGF and rhNRG1-31 (R&D Systems) were added to isolated wells on each plate for a final concentration of 150 ng/ml; supernatant from mock-transfected HEK293T/17 wells were transferred as neutral controls. Following addition of supernatants and purified protein controls, Cpd. A diluted in DMEM was added at 10 μl/well for a final assay concentration of 100 nM. After 96 hours incubation, growth was measured using the CellTiter-Glo luminescent cell viability assay system (Promega). In brief, 30 μl CellTiter-Glo reagent was added to all wells, then incubated for 15 minutes at room temperature before reading luminescence on a Viewlux plate reader (Perkin Elmer). (FIG. 1)
MKN-45 Dual Inhibition: MKN-45 cells were seeded at 3000 cells/20 μl/well in 384-well plates and incubated overnight. Solutions of rhFGF7 and rhNRG-1 were prepared in DMEM+10%FBS, then added at 30 μl/well to achieve a final concentration of 250 ng/ml (one purified protein per treatment). The following single and dual inhibition treatments were prepared in DMEM and added at […]: Cpd. A, Cpd. B, BGJ398, Lapatinib, Cpd. A and BGJ398, Cpd. B and BGJ398, Cpd. A and Lapatinib, Cpd. B and Lapatinib. Final concentrations for each compound, whether single or combined, were as follows: 100 nM for Cpd. A and Cpd. B, 500 nM for BGJ398 and 1.5 μM for Lapatinib. After 96 hours cell viability was measured by CellTiter-Glo as previously described. (FIG. 3, FIG. 4)

[2] = system: phosphorylation of MET, ERK1/2, AKT, FRS2 in MKN-45; assay: Western blots of protein phosphorylation in MKN-45 cells
Method: as §1

CS(=O)(=O)CCNCc1ccc(-c2ccc3ncnc(Nc4ccc(OCc5cccc(F)c5)c(Cl)c4)c3c2)o1 [lapatinib, reference compound]
sensitivity of NRG1-caused restoration of ERK phosphorylation to inhibitor ([1]; RT-112): lapatinib-sensitive | activity on cell viability (reversal of rescue) (RT-112 cells): not sufficient | activity on cell viability (reversal of rescue) (MKN-45 cells): not sufficient | reversal of ligand-mediated rescue of proliferation (MKN-45 cells; MKN-45 in presence of MET inhibitor Cpd. A or Cpd. B, FIGS. 3, 4): reversed rescue by NRG1 | reversal of FGF7 rescue effect on FRS2 and ERK1/2 phosphorylation ([2]; MKN-45, MET inhibitor plus FGF7): not | sensitivity of NRG1-evoked phosphorylation re-activation to inhibitor ([2]; MKN-45, MET inhibitor plus NRG1): specifically sensitive

HGF: Hepatocyte Growth Factor
ERK phosphorylation after addition of ligand ([1]; RT-112, in the presence of BGJ398): restored ERK phosphorylation | rescue of cell proliferation by recombinant ligand (RT-112 cells; RT-112 in presence of FGFR inhibitor): reproduce the rescue effects

C/C(=N\NC(N)=O)c1ccc2ncc(Cc3cc4cccnc4cc3F)n2n1 [Cpd. A, (E)-2-(1-(3-((7-fluoroquinolin-6-yl)methyl)imidazo[1,2-b]pyridazin-6-yl)ethylidene)hydrazinecarboxamide]
prevention of HGF rescue of ERK phosphorylation ([1]; RT-112, BGJ398 plus HGF, simultaneous addition): prevented this rescue effect | MET phosphorylation ([1]; RT-112, absence of ligands): specifically inhibited MET phosphorylation | activity on cell viability (reversal of rescue) (RT-112 cells): not sufficient | activity on cell viability (reversal of rescue) (MKN-45 cells): active | effect on phosphorylation of several proteins (MET, ERK1/2, AKT, FRS2) ([2]; MKN-45, absence of added ligands): profound effect

B1: FGF7: Fibroblast Growth Factor 7 (activator of FGFR) (protein, UniProt P21781 32-194, looked up)
Fibroblast growth factor 7: CNDMTPEQMATNVNCSSPERHTRSYDYMEGGDIRVRRLFCRTQWYLRIDKRGKVKGTQEMKNNYNIMEIRTVAVGIVAIKGVESEFYLAMNKEGKLYAKKECNEDCNFKELILENHYNTYASAKWTHNGGEMFVALNQKGIPVRGKKTKKEQKTAHFLPMAIT
AKT phosphorylation after addition of ligand ([2]; MKN-45, MET inhibited): no or minimal effect on AKT phosphorylation | ERK1/2 phosphorylation after addition of ligand ([2]; MKN-45, MET inhibited): partially re-activated ERK1/2 phosphorylation | FRS2 phosphorylation after addition of ligand ([2]; MKN-45, MET inhibited): re-activated FRS2 phosphorylation
